Patent US11912694B1, “2-(benzo[d]oxazol-2-yl)-N′-(2-(5-(4-chlorophenyl)-1,3,4-oxadiazol-2-ylthio)acetoxy)acetimidamide as an antimicrobial compound” (KING FAISAL UNIVERSITY, priority 2023, dated 2024)

What was measured:
Aspergillus flavus = assay: Agar plate disc-diffusion, antifungal, Aspergillus flavus; type: cell-based; conditions: Sabouraud's dextrose agar, 37° C., 72 hours
Experimental: (§1) The agar plate disc-diffusion method was applied. Sterilized filter papers (6 mm in diameter) were wetted with 10 μL of a solution of 2-(benzo[d]oxazol-2-yl)-N′-(2-(5-(4-chlorophenyl)-1,3,4-oxadiazol-2-ylthio)acetoxy)acetimidamide (3) to be tested, […], and the discs were allowed to air dry. The discs were then placed onto the surface of agar plates (nutrient agar for bacteria and Sabouraud's dextrose agar for fungi) seeded with the test organism. Each plate contained 15 mL of the agar medium, previously seeded with 0.2 mL of the broth culture of each organism pregrown for 18 hours. The plates were incubated at 37° C. for 48 hours and 72 hours for fungi. The inhibition zones were measured in mm. Discs impregnated with DMSO were used as a control, and their inhibition zone was subtracted from the tested compound's actual inhibition zone.

Escherichia coli = assay: Agar plate disc-diffusion, antibacterial, Escherichia coli; type: cell-based; conditions: nutrient agar, 37° C., 48 hours
Experimental: as §1

Bacillus cereus = assay: Agar plate disc-diffusion, antibacterial, Bacillus cereus; type: cell-based; conditions: nutrient agar, 37° C., 48 hours
Experimental: as §1

Pseudomonas aeruginosa = assay: Agar plate disc-diffusion, antibacterial, Pseudomonas aeruginosa; type: cell-based; conditions: nutrient agar, 37° C., 48 hours
Experimental: as §1

Staphylococcus aureus = assay: Agar plate disc-diffusion, antibacterial, Staphylococcus aureus; type: cell-based; conditions: nutrient agar, 37° C., 48 hours
Experimental: as §1

[1] = test system: Chrysosporium keratinophilum; assay: Agar plate disc-diffusion, antifungal, Chrysosporium keratinophilum; type: cell-based; conditions: Sabouraud's dextrose agar, 37° C., 72 hours
Experimental: as §1

[2] = A = concentration of comp. = 10,000 μL
[3] = B = concentration of comp. = 30,000 μL
[4] = C = concentration of comp. = 50,000 μL
[5] = A = concentration of comp. = 10,000 μg/mL
[6] = A = concentration of comp. = 10 mg/mL

Compound | inhibition zone (Aspergillus flavus; [2]) [mm] | inhibition zone (Aspergillus flavus; [3]) [mm] | inhibition zone (Aspergillus flavus; [4]) [mm] | inhibition zone (Escherichia coli; [5]) [mm] | inhibition zone (Escherichia coli; [3]) [mm] | inhibition zone (Escherichia coli; [4]) [mm] | inhibition zone (Bacillus cereus; [2]) [mm] | inhibition zone (Bacillus cereus; [3]) [mm] | inhibition zone (Bacillus cereus; [4]) [mm] | inhibition zone (Pseudomonas aeruginosa; [5]) [mm] | inhibition zone (Pseudomonas aeruginosa; [3]) [mm] | inhibition zone (Pseudomonas aeruginosa; [4]) [mm] | inhibition zone (Staphylococcus aureus; [2]) [mm] | inhibition zone (Staphylococcus aureus; [3]) [mm] | inhibition zone (Staphylococcus aureus; [4]) [mm] | inhibition zone [1, 6] [mm] | inhibition zone [1, 3] [mm] | inhibition zone [1, 4] [mm] | melting point [°C]
O=C(O)c1cn(C2CC2)c2cc(N3CCNCC3)c(F)cc2c1=O [Cip., ciprofloxacin, reference compound] | 29 | 30 | 42 | 30 | 39 | 60 | 29 | 30 | 42 | 29 | 30 | 53 | 43 | 44 | 53 | 29 | 30 | 53 | 
N/C(Cc1nc2ccccc2o1)=N\OC(=O)CSc1nnc(-c2ccc(Cl)cc2)o1 [Compound 3, 2-(benzo[d]oxazol-2-yl)-N′-(2-(5-(4-chlorophenyl)-1,3,4-oxadiazol-2-ylthio)acetoxy)acetimidamide] | 25 | 30 | 41 | 28 | 37 | 49 | 27 | 30 | 41 | 24 | 29 | 36 | 27 | 35 | 42 | 28 | 35 | 47 | 162 to 163
